US8562953B2, “Dendritic polymers and magnetic resonance imaging contrast agent employing the same” (Industrial Technology Research Institute, priority 2007, dated 2013)

Test: T1 relaxation measurements (water proton relaxivity, 20 MHz NMR spectrometer, inversion-recovery)
Format: physicochemical
Conditions: Bo = 0.47 T, per Gd^3+ ion
Procedure: T1 Relaxation Measurements […] […] All of the three generations of cyclosiloxane-core dendrimers (polymer (A)˜(C)) were analyzed and compared with a commercial contrast agent, namely, Magnevist. […] 1, polymers (A)˜(D) for Magnetic resonance imaging (MRI) were developed. It consists of paramagnetic gadolinium ions chelated to DTPA/benzyl-DTPA molecules which in turn were attached to the peripheral of the cyclic dendritic structure.

Relaxivity/Gd^3+ ion (ionic) r1: 4.2 (mM · s) − 1
Structure (SMILES): CNC[C@H](O)[C@@H](O)[C@H](O)[C@H](O)CO.CNC[C@H](O)[C@@H](O)[C@H](O)[C@H](O)CO.O=C([O-])CN(CCN(CC(=O)[O-])CC(=O)O)CCN(CC(=O)[O-])CC(=O)O.[Gd+3] [Magnevist ™]
